Laboratory results reported in article PMC7765409 (International Journal of Molecular Sciences, 2020).

How the values were obtained:
CDK4 gene expression = experiment: RT-qPCR gene expression in TG/FA-treated hiPSC-Hep; format: cell-based, human; conditions: 24 h pre-treatment then TG/FA 18 h, relative to TG/FA
Description: (§1) To explore the signaling partners triggered or altered by the drugs, we performed gene expression RT-qPCR. The hiPSC-Hep were pre-treated in a 24-well plate with the three compounds shown in Figure 7 for 24 h followed by TG/FA challenge for an additional 18 h and RNA from each treatment well was isolated. The pre-treatment paradigm was chosen to stay consistent with how the original HTS was performed. We analyzed several target gene expression levels in the C/EBP-EP300 pathway including CDK2, CDK4, C/EBPα and C/EBPβ, EP300, and diacylglycerol acyltransferase 2 (DGAT2).
(§2) RNA was isolated from hiPSC-derived hepatocytes using the RNeasy kit (Qiagen, Frederick) and subsequently subjected to DNase digestion (Qiagen). Total RNA was quantified using NanoDrop 8000 (Thermo Scientific). The quality of total RNA was assessed by the Agilent Bioanalyzer Nano chip (Agilent Technologies) and RNA integrity number (RIN) ranged from 9.7 to 10. Reverse transcription was performed using the high capacity cDNA reverse transcription kit (Applied Biosystems, Foster City, CA, USA) according to the manufacturer’s recommendation and the complementary DNA (cDNA) obtained used for real-time quantitative PCR. The reaction mixture (10 μL), containing 1 μL of cDNA template, 0.5 μL each of primer and probe (20×, Thermo Fisher Scientific) mix for the gene of interest plus the reference gene and TaqMan Universal PCR master mix (Applied Biosystems) was added to the opaque white 384-well plates and amplified as follows: after 2 min of initial incubation at 50 °C and 10 min of initial denaturation at 95 °C, 45 cycles at 95 °C for 15 s, 60 °C for 1 min for annealing and 1 sec at 72 °C for final extension were performed. Assays were designed to have primers/probes to span exon–exon junctions (Table S1). Direct detection of PCR products was monitored by measuring the fluorescence produced by the result of TaqMan probe hydrolysis after every cycle. All experiments were carried out in triplicate in a LightCycler 480 thermocycler (Roche Diagnostic). Relative gene expression from qPCR data between groups of samples were assessed using a ∆∆Cq method. To adjust for variations in the cDNA synthesis each gene was normalized to that of hypoxanthine phosphoribosyl transferase 1 (HPRT1] or GAPDH mRNA.

EP300 gene expression = experiment: RT-qPCR gene expression in TG/FA-treated hiPSC-Hep; format: cell-based, human; conditions: 24 h pre-treatment then TG/FA 18 h; relative to TG/FA
Description: as §1, §2

C/EBPβ gene expression = experiment: RT-qPCR gene expression in TG/FA-treated hiPSC-Hep; format: cell-based, human; conditions: 24 h pre-treatment then TG/FA 18 h; relative to TG/FA
Description: as §1, §2

C/EBPα mRNA expression = experiment: RT-qPCR gene expression in TG/FA-treated hiPSC-Hep; format: cell-based, human; conditions: 24 h pre-treatment then TG/FA 18 h
Description: as §1, §2

DGAT2 mRNA = experiment: RT-qPCR gene expression in TG/FA-treated hiPSC-Hep; format: cell-based, human; conditions: dose-dependent, under condition of hepatic steatosis (TG/FA)
Description: as §1, §2

CDK2 gene expression = experiment: RT-qPCR gene expression in TG/FA-treated hiPSC-Hep; format: cell-based, human; conditions: 24 h pre-treatment then TG/FA 18 h; relative to TG/FA
Description: as §1, §2

CDK8 = system: CDK8; set-up: method as in AstraZeneca data repository; conditions: median log of IC50/EC50/Ki/Kd annotations, highest value; ref AstraZeneca data repository; cited from earlier work
CDK14 = system: CDK14; set-up: method as in AstraZeneca data repository; conditions: median log of IC50/EC50/Ki/Kd annotations, highest value; ref AstraZeneca data repository; cited from earlier work
CDK5 = system: CDK5; set-up: method as in AstraZeneca data repository; conditions: median log of IC50/EC50/Ki/Kd annotations, highest value; ref AstraZeneca data repository; cited from earlier work
CDK9 = system: CDK9; set-up: method as in AstraZeneca data repository; conditions: median log of IC50/EC50/Ki/Kd annotations, highest value; ref AstraZeneca data repository; cited from earlier work
CDK12 = system: CDK12; set-up: method as in AstraZeneca data repository; conditions: median log of IC50/EC50/Ki/Kd annotations, highest value; ref AstraZeneca data repository; cited from earlier work
CDK16 = system: CDK16; set-up: method as in AstraZeneca data repository; conditions: median log of IC50/EC50/Ki/Kd annotations, highest value; ref AstraZeneca data repository; cited from earlier work
CDK7 = system: CDK7; set-up: method as in AstraZeneca data repository; conditions: median log of IC50/EC50/Ki/Kd annotations, highest value; ref AstraZeneca data repository; cited from earlier work
CDK6 = system: CDK6; set-up: method as in AstraZeneca data repository; conditions: median log of IC50/EC50/Ki/Kd annotations, highest value; ref AstraZeneca data repository; cited from earlier work
CDK5R1 = system: CDK5R1; set-up: method as in AstraZeneca data repository; conditions: median log of IC50/EC50/Ki/Kd annotations, highest value; ref AstraZeneca data repository; cited from earlier work

Cc1ncc(-c2nc(Nc3ccc(N4CCN(C(=O)CO)CC4)cc3)ncc2F)n1C(C)C [C3]
effect on CDK4 mRNA level (CDK4 gene expression): no effect
effect on EP300 gene expression (EP300 gene expression): no effect
effect on C/EBPβ gene expression (C/EBPβ gene expression): no effect
effect on C/EBPα mRNA level (C/EBPα mRNA expression; relative to TG/FA): no effect
DGAT2 mRNA level decreased by (DGAT2 mRNA): 46%
effect on CDK2 gene expression (CDK2 gene expression): no effect
pXC50 CDK8 (CDK8): 5.60

CNC(=O)c1nn(C)c2c1C(C)(C)Cc1cnc(Nc3ccc(N4CCN(C)CC4)cc3)nc1-2 [C16, Milciclib]
pXC50 CDK14 (CDK14): 6.13
pXC50 CDK5 (CDK5): 6.58
pXC50 CDK9 (CDK9): 5.60
CDK4 gene expression suppressed to (CDK4 gene expression; 5 µM): ~34%
effect on EP300 gene expression (EP300 gene expression): not significantly affected
C/EBPα mRNA expression suppressed by (C/EBPα mRNA expression; 5 µM): 47%
effect on CDK2 gene expression (CDK2 gene expression): overall increase
pXC50 CDK12 (CDK12): 5.34
pXC50 CDK16 (CDK16): 7.10
pXC50 CDK7 (CDK7): 7.51
pXC50 CDK6 (CDK6): 7.61
pXC50 CDK5R1 (CDK5R1): 6.58
